According to patent US9718819B2 (Merck Sharp & Dohme Corp., priority 2012, dated 2017):
pIC50: −log10 of the molar value.

Target: HIV-1 RT wild-type enzyme (Human immunodeficiency virus type 1 group M subtype B (isolate HXB2) (HIV-1), UniProt P04585)
Test: HIV-1 reverse transcriptase inhibitory activity (RT polymerase assay)
Assay type: biochemical
Conditions: HIV-1 RT wild-type enzyme 83 pM; RNA-dependent DNA polymerase activity; read-out: IC50
Method: Determination of HIV-1 Reverse Transcriptase Inhibitory Activity
The heterodimeric nucleic acid substrate used in the HIV-1 RT polymerase reactions was generated by annealing the DNA primer, biotinylated pD500 (Sigma Aldrich, USA, 5′-biotin-ttg aaa tga ctg cgg tac ggc-3′), SEQ ID NO. 1 to the nucleotide RNA template t500 (derived from hepatitis C virus [HCV] sequence, IBA, Germany, 5′-[…]-3′), SEQ ID NO 2). […] The mixture was then preincubated on an orbital shaker for 30 min at room temperature in microtiter plates (Costar 3365, Corning, USA). A polymerization reaction was initiated by the addition of RNA template/pD500 DNA primer hybrid (16.6 nM final of RNA/DNA hybrid) and dNTPs (2 μM dATP, dGTP, dCTP and 66.6 nM Ru-dUTP (Meso Scale Discovery, USA)). Plate was sealed and incubated for 5-10 min at room temperature on an orbital shaker. Plate was then incubated for 90 min at 37° C. and reactions quenched with 60 μl quenching buffer (50 mM EDTA, 0.7% BSA, 0.7% Tween-20, 0.017% sodium azide in PBS). The resulting solution was incubated at room temperature for an additional 5 min and then 50 μL was transferred to pre-blocked Avidin plates (L15AA, Meso Scale Discovery). Each well of Avidin plate was blocked for 1 h at room temperature with 100 μL 5% BSA in PBS. Blocking solution was removed by tapping vigorously on filter paper to remove all excess liquid. Reaction on pre-blocked avidin plate proceeded for 60 min at room temperature and then contents removed by tapping vigorously on filter paper to remove all excess liquid. After washing plate 3 times with 150 μL 1×PBS and blotting dry between cycles, 150 μL 1× Read Buffer T (4× Read Buffer T, Meso Scale Discovery) was added and incubated for 5 min at room temperature before counting on a Sector Imager […] (Meso Scale Discovery). Titration curves and IC50 values were calculated using a four parameter logisitc fit according to standard procedures. Briefly, % Inhibition=100×((sample raw value)−(mean value of the low control or 0% inhibition))/((mean value of wells representing 100% inhbition)−(mean value of 0% inhbition)). In this assay, low control wells contain DMSO (0% inhbition) and 100% inhibition wells contain 1 μM efavirenz.

Compound	pIC50
N#Cc1cc(Cl)cc(Oc2c(C(F)(F)F)ncn(Cc3ccc(=O)[nH]n3)c2=O)c1Cl [Example 18, 2,5-dichloro-3-((6-oxo-1-((6-oxo-1,6-dihydropyridazin-3-yl)methyl)-4-(trifluoromethyl)-1,6-dihydropyrimidin-5-yl)oxy)benzonitrile]	8.30
N#Cc1cc(Cl)cc(Oc2c(C(F)(F)F)ncn(Cc3ncc[nH]c3=O)c2=O)c1 [Example 4, 3-chloro-5-((6-oxo-1-((3-oxo-3,4-dihydropyrazin-2-yl)methyl)-4-(trifluoromethyl)-1,6-dihydropyrimidin-5-yl)oxy)benzonitrile]	6.91
CCc1ncc(Cn2cnc(C(F)(F)F)c(Oc3cc(Cl)cc(C#N)c3)c2=O)c(=O)[nH]1 [Example 144, 3-chloro-5-((1-((2-ethyl-6-oxo-1,6-dihydropyrimidin-5-yl)methyl)-6-oxo-4-(trifluoromethyl)-1,6-dihydropyrimidin-5-yl)oxy)benzonitrile]	8.05
CC(C)(C)c1ccc(-c2cc(Cn3cnc(C(F)(F)F)c(Oc4cc(Cl)cc(C#N)c4)c3=O)n[nH]c2=O)cc1 [Example 53, 3-((1-((5-(4-(tert-butyl)phenyl)-6-oxo-1,6-dihydropyridazin-3-yl)methyl)-6-oxo-4-(trifluoromethyl)-1,6-dihydropyrimidin-5-yl)oxy)-5-chlorobenzonitrile]	7.15
N#Cc1cc(Cl)cc(Oc2c(C(F)(F)F)ncn(Cc3cc(-c4ccc(OC(F)(F)F)cc4)c(=O)[nH]n3)c2=O)c1 [Example 24, 3-chloro-5-((6-oxo-1-((6-oxo-5-(4-(trifluoromethoxy)phenyl)-1,6-dihydropyridazin-3-yl)methyl)-4-(trifluoromethyl)-1,6-dihydropyrimidin-5-yl)oxy)benzonitrile]	7.62
N#Cc1cc(Cl)cc(Oc2c(C(F)(F)F)ncn(Cc3cc(-c4ccc(C#N)c(F)c4)n[nH]c3=O)c2=O)c1 [Example 122, 4-(5-((5-(3-chloro-5-cyanophenoxy)-6-oxo-4-(trifluoromethyl)pyrimidin-1(6H)-yl)methyl)-6-oxo-1,6-dihydropyridazin-3-yl)-2-fluorobenzonitrile]	8.22
N#Cc1cc(Cl)cc(Oc2c(C(F)(F)F)ncn(Cc3cc(-c4ccc(F)c(F)c4F)c(=O)[nH]n3)c2=O)c1 [Example 62, 3-chloro-5-((6-oxo-1-((6-oxo-5-(2,3,4-trifluorophenyl)-1,6-dihydropyridazin-3-yl)methyl)-4-(trifluoromethyl)-1,6-dihydropyrimidin-5-yl)oxy)benzonitrile]	8.00
CC(F)(F)c1ncn(Cc2cc(-c3ccc(F)cc3)c(=O)[nH]n2)c(=O)c1Oc1cccc(C#N)c1F [Example 171, 3-((4-(1,1-difluoroethyl)-1-((5-(4-fluorophenyl)-6-oxo-1,6-dihydropyridazin-3-yl)methyl)-6-oxo-1,6-dihydropyrimidin-5-yl)oxy)-2-fluorobenzonitrile]	8.52
N#Cc1cc(Cl)cc(Oc2c(C(F)(F)F)ncn(Cc3cc(-c4ccc(Cl)nc4)c(=O)[nH]n3)c2=O)c1 [Example 86, 3-chloro-5-((1-((5-(6-chloropyridin-3-yl)-6-oxo-1,6-dihydropyridazin-3-yl)methyl)-6-oxo-4-(trifluoromethyl)-1,6-dihydropyrimidin-5-yl)oxy)benzonitrile]	8.22
CN(C)c1cc(Cn2cnc(C(F)(F)F)c(Oc3cc(Cl)cc(C#N)c3)c2=O)n[nH]c1=O [Example 92, 3-chloro-5-((1-((5-(dimethylamino)-6-oxo-1,6-dihydropyridazin-3-yl)methyl)-6-oxo-4-(trifluoromethyl)-1,6-dihydropyrimidin-5-yl)oxy)benzonitrile]	8.22
N#Cc1cc(Cl)cc(Oc2c(C(F)(F)F)ncn(Cc3cc(-c4ccc(F)cc4F)c(=O)[nH]n3)c2=O)c1 [Example 35, 3-chloro-5-((1-((5-(2,4-difluorophenyl)-6-oxo-1,6-dihydropyridazin-3-yl)methyl)-6-oxo-4-(trifluoromethyl)-1,6-dihydropyrimidin-5-yl)oxy)benzonitrile]	8.10
COc1cncc(-c2cc(Cn3cnc(C(F)(F)F)c(Oc4cc(Cl)cc(C#N)c4)c3=O)n[nH]c2=O)c1 [Example 85, 3-chloro-5-((1-((5-(5-methoxypyridin-3-yl)-6-oxo-1,6-dihydropyridazin-3-yl)methyl)-6-oxo-4-(trifluoromethyl)-1,6-dihydropyrimidin-5-yl)oxy)benzonitrile]	7.85
N#Cc1cc(Cl)cc(Oc2c(C(F)(F)F)ncn(Cc3cc(-c4cccc(F)c4)n[nH]c3=O)c2=O)c1 [Example 113, 3-chloro-5-((1-((6-(3-fluorophenyl)-3-oxo-2,3-dihydropyridazin-4-yl)methyl)-6-oxo-4-(trifluoromethyl)-1,6-dihydropyrimidin-5-yl)oxy)benzonitrile]	8.22
N#Cc1cc(Cl)cc(Oc2c(C(F)(F)F)ncn(Cc3cc(Cl)c(=O)[nH]n3)c2=O)c1 [Example 91, 3-chloro-5-((1-((5-chloro-6-oxo-1,6-dihydropyridazin-3-yl)methyl)-6-oxo-4-(trifluoromethyl)-1,6-dihydropyrimidin-5-yl)oxy)benzonitrile]	8.22
Cc1ncn(Cc2cc(-c3ccc(F)cc3)c(=O)[nH]n2)c(=O)c1Oc1cc(Cl)cc(C#N)c1 [Example 169, 3-chloro-5-((1-((5-(4-fluorophenyl)-6-oxo-1,6-dihydropyridazin-3-yl)methyl)-4-methyl-6-oxo-1,6-dihydropyrimidin-5-yl)oxy)benzonitrile]	8.40
Cn1nccc1-c1cc(Cn2cnc(C(F)(F)F)c(Oc3cc(Cl)cc(C#N)c3)c2=O)n[nH]c1=O [Example 76, 3-chloro-5-((1-((5-(1-methyl-1H-pyrazo1-5-yl)-6-oxo-1,6-dihydropyridazin-3-yl)methyl)-6-oxo-4-(trifluoromethyl)-1,6-dihydropyrimidin-5-yl)oxy)benzonitrile]	7.00
N#Cc1cc(Cl)cc(Oc2c(C(F)(F)F)ncn(Cc3cc(-c4ccc(F)cn4)c(=O)[nH]n3)c2=O)c1 [Example 98, 3-chloro-5-((1-((5-(5-fluoropyridin-2-yl)-6-oxo-1,6-dihydropyridazin-3-yl)methyl)-6-oxo-4-(trifluoromethyl)-1,6-dihydropyrimidin-5-yl)oxy)benzonitrile]	8.05
N#Cc1cc(Cl)cc(Oc2c(C(F)(F)F)ncn(Cc3cc(-c4ccc(C(N)C(F)(F)F)cc4)c(=O)[nH]n3)c2=O)c1 (stereo not drawn) [Example 89, 3-((1-((5-(4-(1-amino-2,2,2-trifluoroethyl)phenyl)-6-oxo-1,6-dihydropyridazin-3-yl)methyl)-6-oxo-4-(trifluoromethyl)-1,6-dihydropyrimidin-5-yl)oxy)-5-chlorobenzonitrile]	7.74
N#Cc1cc(Cl)cc(Oc2c(C(F)(F)F)ncn(Cc3cnc(C#N)[nH]c3=O)c2=O)c1 [Example 155, 5-((5-(3-chloro-5-cyanophenoxy)-6-oxo-4-(trifluoromethyl)pyrimidin-1(6H)-yl)methyl)-6-oxo-1,6-dihydropyrimidine-2-carbonitrile]	7.03
N#Cc1cc(Cl)cc(Oc2c(C(F)(F)F)ncn(Cc3cnc(C(F)F)[nH]c3=O)c2=O)c1 [Example 157, 3-chloro-5-((1-((2-(difluoromethyl)-6-oxo-1,6-dihydropyrimidin-5-yl)methyl)-6-oxo-4-(trifluoromethyl)-1,6-dihydropyrimidin-5-yl)oxy)benzonitrile]	7.49
N#Cc1cccc(Oc2c(C(F)(F)F)ncn(Cc3cc(-c4ccc(F)cc4)c(=O)[nH]n3)c2=O)c1F [Example 165, 2-fluoro-3-((1-((5-(4-fluorophenyl)-6-oxo-1,6-dihydropyridazin-3-yl)methyl)-6-oxo-4-(trifluoromethyl)-1,6-dihydropyrimidin-5-yl)oxy)benzonitrile]	8.52
N#Cc1cc(Cl)cc(Oc2c(C(F)(F)F)ncn(Cc3cc(-c4ccc(OC(F)F)cc4)c(=O)[nH]n3)c2=O)c1 [Example 30, 3-chloro-5-((1-((5-(4-(difluoromethoxy)phenyl)-6-oxo-1,6-dihydropyridazin-3-yl)methyl)-6-oxo-4-(trifluoromethyl)-1,6-dihydropyrimidin-5-yl)oxy)benzonitrile]	8.40
Cc1ccc(F)cc1-c1cc(Cn2cnc(C(F)(F)F)c(Oc3cc(Cl)cc(C#N)c3)c2=O)n[nH]c1=O [Example 50]	6.78
N#Cc1cc(Cl)cc(Oc2c(C(F)(F)F)ncn(Cc3cc(C#N)c(=O)[nH]n3)c2=O)c1 [Example 95, 6-((5-(3-chloro-5-cyanophenoxy)-6-oxo-4-(trifluoromethyl)pyrimidin-1(6H)-yl)methyl)-3-oxo-2,3-dihydropyridazine-4-carbonitrile]	8.10
